In US7326574B2, “Compositions and methods for detecting stress-inducible proteins” (Stressgen Biotechnologies Corporation, priority 1999, dated 2008):

Legend:
[1] = system: HeLa, Jurkat and A-431 human cell lines; test: Relative induction of Hsc70, Hsp70A and Hsp70B′ proteins; type: cell-based
[2] = system: hsp70B′ mRNA; details: Leung et al., Biochem. J. 267:125-132, 1990; cited from earlier work
[3] = system: Jurkat cells; test: Induction of Hsc70, Hsp70A and Hsp70B′ proteins under different induction conditions, Western blotting; type: cell-based, human; details: Azetidine 5 μM, 5 hours, CdCl2 100 μM, 2 hours, ZnCl2 250 μM
[4] = system: A431 cells; test: as above; type: cell-based, human; details: Azetidine 5 μM, 5 hours, CdCl2 100 μM, 2 hours, ZnCl2 250 μM
[5] = system: HeLa cells; test: as above; type: cell-based, human; details: Azetidine 5 μM, 5 hours, CdCl2 100 μM, 2 hours, ZnCl2 250 μM; for Induction of Hsc70, relative protein level: 20 ug total cell lysate
[6] = molecular target: T1, unconjugated CE peptide (Homo sapiens, UniProt P17066); test: Indirect EIA, relative titre index; type: binding; details: relative to irrelevant antibody
T1 construct: purchased Research Genetics, Inc; host or cells: chemical synthesis

[7] = molecular target: E. coli DnaK (Escherichia coli, UniProt P0A6Y8)
Sequence of E. coli DnaK (P0A6Y8 whole entry): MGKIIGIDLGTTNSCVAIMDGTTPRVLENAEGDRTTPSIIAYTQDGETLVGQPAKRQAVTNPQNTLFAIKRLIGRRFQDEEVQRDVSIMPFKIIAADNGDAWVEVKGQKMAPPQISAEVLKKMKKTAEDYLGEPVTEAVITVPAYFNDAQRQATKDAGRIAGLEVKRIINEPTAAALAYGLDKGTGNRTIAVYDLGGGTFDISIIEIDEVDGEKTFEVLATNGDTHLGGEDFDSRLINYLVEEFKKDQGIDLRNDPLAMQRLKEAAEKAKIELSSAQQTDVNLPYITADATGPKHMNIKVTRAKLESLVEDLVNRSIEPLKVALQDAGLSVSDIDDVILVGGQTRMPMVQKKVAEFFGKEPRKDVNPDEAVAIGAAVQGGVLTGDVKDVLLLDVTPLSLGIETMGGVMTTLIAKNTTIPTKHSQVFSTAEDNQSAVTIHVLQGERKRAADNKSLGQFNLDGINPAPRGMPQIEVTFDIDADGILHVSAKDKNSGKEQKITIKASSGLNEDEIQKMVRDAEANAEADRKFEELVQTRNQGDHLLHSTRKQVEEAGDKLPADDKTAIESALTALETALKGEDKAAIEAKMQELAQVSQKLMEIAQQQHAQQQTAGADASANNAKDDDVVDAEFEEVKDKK

[8] = molecular target: T2, recombinant human Hsp70A (Homo sapiens, UniProt P0DMV8); test: Indirect EIA, relative titre index; type: binding; details: Hsp70A Protein; relative to irrelevant antibody
T2 construct: purchased Stressgen Biotechnologies SPP-755
T2 sequence (P0DMV8 whole entry): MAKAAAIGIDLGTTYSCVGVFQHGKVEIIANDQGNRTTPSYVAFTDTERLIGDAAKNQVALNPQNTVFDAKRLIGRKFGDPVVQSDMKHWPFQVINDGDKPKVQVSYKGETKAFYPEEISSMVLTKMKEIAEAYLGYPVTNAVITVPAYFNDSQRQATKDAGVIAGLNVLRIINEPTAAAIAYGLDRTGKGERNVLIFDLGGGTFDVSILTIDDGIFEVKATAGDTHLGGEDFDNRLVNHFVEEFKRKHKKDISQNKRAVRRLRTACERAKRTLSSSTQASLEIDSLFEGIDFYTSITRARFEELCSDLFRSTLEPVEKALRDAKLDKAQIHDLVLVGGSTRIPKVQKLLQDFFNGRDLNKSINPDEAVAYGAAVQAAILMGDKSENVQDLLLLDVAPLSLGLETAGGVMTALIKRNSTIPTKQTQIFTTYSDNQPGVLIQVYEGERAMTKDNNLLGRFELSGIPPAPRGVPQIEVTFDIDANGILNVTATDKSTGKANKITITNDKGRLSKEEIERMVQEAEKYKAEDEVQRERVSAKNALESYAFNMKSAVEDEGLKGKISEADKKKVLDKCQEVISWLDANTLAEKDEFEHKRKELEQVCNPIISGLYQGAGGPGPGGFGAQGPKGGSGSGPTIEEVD

[9] = molecular target: T3, unconjugated ECB peptide (Homo sapiens, UniProt P17066); test: Indirect EIA, relative titre index; type: binding; details: relative to irrelevant antibody
T3 construct: purchased Research Genetics, Inc; host or cells: chemical synthesis

[10] = molecular target: T4, Hsp70B′ (Homo sapiens, UniProt P17066); test: Western blotting of HSP70 family members; type: binding; details: SDS-denatured recombinant protein; band intensity 0-3
T4 construct: E. coli BL21 (DE3) cells harboring the expression plasmid for full length human Hsp70B′; made in house; host or cells: E. coli BL21 (DE3) / BLR (DE3), pET24a
T4 sequence (P17066 whole entry): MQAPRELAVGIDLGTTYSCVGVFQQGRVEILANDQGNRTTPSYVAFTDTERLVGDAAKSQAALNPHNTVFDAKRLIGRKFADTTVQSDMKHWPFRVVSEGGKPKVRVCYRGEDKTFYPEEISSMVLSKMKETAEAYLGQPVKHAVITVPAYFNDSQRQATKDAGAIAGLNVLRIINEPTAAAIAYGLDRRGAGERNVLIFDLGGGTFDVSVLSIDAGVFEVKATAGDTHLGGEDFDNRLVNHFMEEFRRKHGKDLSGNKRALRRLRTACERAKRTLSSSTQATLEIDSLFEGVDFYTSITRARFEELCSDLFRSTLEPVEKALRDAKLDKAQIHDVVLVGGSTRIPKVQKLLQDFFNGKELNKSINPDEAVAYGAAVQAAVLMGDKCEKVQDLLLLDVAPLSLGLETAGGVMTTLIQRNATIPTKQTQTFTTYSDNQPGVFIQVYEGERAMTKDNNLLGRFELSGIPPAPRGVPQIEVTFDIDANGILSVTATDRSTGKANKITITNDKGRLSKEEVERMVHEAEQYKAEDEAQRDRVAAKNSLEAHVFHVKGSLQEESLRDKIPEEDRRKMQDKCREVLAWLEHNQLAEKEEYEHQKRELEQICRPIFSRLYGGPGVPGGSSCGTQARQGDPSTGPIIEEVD

[11] = molecular target: T4, Hsp70B′; test: Indirect EIA, relative titre index; type: binding
[12] = molecular target: T5, recombinant hamster Grp78 (Mesocricetus auratus, UniProt P07823); test: Indirect EIA, relative titre index; type: binding; details: Grp78 Protein; relative to irrelevant antibody
T5 construct: purchased Stressgen Biotechnologies SPP-765
T5 sequence (P07823 19-654): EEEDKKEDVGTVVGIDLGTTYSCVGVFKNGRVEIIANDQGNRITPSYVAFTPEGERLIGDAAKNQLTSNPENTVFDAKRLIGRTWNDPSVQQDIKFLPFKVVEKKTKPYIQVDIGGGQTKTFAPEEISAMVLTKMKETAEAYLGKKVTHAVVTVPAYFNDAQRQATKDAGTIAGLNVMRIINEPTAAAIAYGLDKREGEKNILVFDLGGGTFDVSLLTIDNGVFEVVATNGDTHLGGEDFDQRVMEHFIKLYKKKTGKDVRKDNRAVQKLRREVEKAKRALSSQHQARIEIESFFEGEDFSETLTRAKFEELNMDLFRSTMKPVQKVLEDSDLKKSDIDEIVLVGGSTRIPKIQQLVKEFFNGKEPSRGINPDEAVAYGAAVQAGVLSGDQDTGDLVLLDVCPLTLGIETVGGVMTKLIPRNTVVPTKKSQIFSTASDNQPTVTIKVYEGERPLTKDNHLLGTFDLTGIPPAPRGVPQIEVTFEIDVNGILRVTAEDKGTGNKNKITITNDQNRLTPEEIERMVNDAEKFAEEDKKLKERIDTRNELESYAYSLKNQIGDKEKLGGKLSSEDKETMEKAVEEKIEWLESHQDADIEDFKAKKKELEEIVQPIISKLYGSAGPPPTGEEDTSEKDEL

[13] = molecular target: T6, recombinant bovine Hsc70 (Bos taurus, UniProt P19120); test: Indirect EIA, relative titre index; type: binding; details: Hsc70 Protein; relative to irrelevant antibody
T6 construct: purchased Stressgen Biotechnologies SPP-751
T6 sequence (P19120 whole entry): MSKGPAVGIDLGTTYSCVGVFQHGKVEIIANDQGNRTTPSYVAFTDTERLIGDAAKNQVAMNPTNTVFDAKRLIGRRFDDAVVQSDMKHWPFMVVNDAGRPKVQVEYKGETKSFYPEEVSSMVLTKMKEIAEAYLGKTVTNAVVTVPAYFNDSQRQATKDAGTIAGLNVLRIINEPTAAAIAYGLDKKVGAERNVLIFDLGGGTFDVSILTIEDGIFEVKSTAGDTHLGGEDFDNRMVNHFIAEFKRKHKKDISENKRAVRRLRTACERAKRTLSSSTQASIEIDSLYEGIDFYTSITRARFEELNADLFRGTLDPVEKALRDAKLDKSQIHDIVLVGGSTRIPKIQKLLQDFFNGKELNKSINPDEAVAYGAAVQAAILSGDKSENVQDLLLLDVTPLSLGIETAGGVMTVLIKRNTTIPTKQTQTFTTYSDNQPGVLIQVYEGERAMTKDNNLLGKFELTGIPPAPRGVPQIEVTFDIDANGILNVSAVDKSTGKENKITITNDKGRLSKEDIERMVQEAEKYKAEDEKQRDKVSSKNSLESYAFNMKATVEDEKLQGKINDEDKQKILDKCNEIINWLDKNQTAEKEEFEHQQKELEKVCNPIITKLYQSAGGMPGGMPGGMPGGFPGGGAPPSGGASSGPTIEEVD

[14] = molecular target: T7, unconjugated TCB peptide (Homo sapiens, UniProt P17066); test: Indirect EIA, relative titre index; type: binding; details: relative to irrelevant antibody
T7 construct: purchased Research Genetics, Inc; host or cells: chemical synthesis

[15] = molecular target: T8, unconjugated CB2 peptide (Homo sapiens, UniProt P17066); test: Indirect EIA, relative titre index; type: binding; details: relative to irrelevant antibody
T8 construct: The CB peptide was also resynthesized on a separate occasion and designated CB2; purchased Research Genetics, Inc; host or cells: chemical synthesis

[16] = molecular target: recombinant M. tuberculosis Hsp71 (Mycobacterium tuberculosis, UniProt P9WMJ9)
Sequence of recombinant M. tuberculosis Hsp71 (P9WMJ9 whole entry): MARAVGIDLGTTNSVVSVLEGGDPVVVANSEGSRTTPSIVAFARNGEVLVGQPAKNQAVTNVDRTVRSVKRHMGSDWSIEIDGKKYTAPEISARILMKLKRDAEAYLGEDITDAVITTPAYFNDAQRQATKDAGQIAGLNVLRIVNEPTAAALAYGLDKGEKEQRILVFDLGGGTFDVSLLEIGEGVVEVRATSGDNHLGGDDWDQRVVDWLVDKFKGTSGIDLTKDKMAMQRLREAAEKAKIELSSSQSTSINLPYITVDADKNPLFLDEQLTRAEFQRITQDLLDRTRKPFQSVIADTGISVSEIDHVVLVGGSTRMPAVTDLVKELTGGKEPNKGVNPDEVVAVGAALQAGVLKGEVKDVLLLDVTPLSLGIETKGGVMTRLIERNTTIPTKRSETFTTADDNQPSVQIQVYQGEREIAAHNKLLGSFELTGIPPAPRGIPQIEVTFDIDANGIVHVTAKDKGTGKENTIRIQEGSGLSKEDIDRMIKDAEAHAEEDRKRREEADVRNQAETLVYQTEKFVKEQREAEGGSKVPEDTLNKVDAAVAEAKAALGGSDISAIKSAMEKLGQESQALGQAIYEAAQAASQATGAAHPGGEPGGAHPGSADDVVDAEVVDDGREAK

[17] = molecular target: T9, 68 kDa (Hsp70B′) protein from HeLa cell lysates (Homo sapiens, UniProt P17066); test: Immunoblotting of unstressed and heat stressed human cell lysates; type: binding; design: key to Reactivity with 68 kDa (Hsp70B′) protein, HeLa: 0 = no signal; 3 = a very strong signal
T9 construct: endogenous in cells; host or cells: HeLa (ATCC CCL-2), unstressed and heat stressed
T9 sequence (P17066 whole entry): as the sequence (P17066 whole entry) above

[18] = system: immunizing peptide; test: Anti-peptide titre ELISA with peptide on the solid phase; type: binding, human; details: rabbit host
Procedure: Methods: Hsp70B′ Antibodies were produced as follows. Hsp70B′ antibodies were produced in rabbits, goats and mice with either synthetic peptides or recombinant Hsp70B′ protein as immunogen. Eight peptides were chosen from the human Hsp70B′ amino acid sequence. One of the Hsp70B′ peptides, the NT peptide […](C) (SEQ ID NO:9) corresponded to an N-terminal fragment. […] Sera were collected at various time points and the antibody response to the immunizing protein or peptide was evaluated in an indirect enzyme immunoassay (EIA). Titres were established as the dilution factor at which the absorbance in the test sample was equal to 0.2 optical density units. […]
Anti-peptide titre was determined as follows. […] The anti-peptide titres in the rabbits, goats, and mice were determined in an ELISA with peptide on the solid phase. […]
Biotinylated secondary antibodies (100 μl) were added to each microtitre plate test well and incubated for four hours at room temperature. […] The plates were read at 414 λ, 20 minutes following the addition of substrate. Titres were established as the reciprocal dilution factor at which the test sample was equal to 0.2 absorbance units.

Molecule | Expression of the constitutive Hsc70 protein [1] | Induction of Hsp70B′ protein [1] | Induction of Hsc70, relative protein level [3] | Induction of Hsp70A, relative protein level [3] | Induction of Hsp70A/B′, relative protein level [3] | Induction of Hsp70B′, relative protein level [3] | Induction of Hsc70, relative protein level [4] | Induction of Hsp70A, relative protein level [4] | Induction of Hsp70A/B′, relative protein level [4] | Induction of Hsp70B′, relative protein level [4] | Induction of Hsp70A, relative protein level [5] | Induction of Hsp70A/B′, relative protein level [5] | Induction of Hsp70B′, relative protein level [5] | Induction of Hsc70, relative protein level [5] | further results
[Cl][Cd][Cl] [CdCl2] | not affected | induced | +3 | +2 | +2 | +3 | +3 | +2 | +3 | +1 | +3 | +3 | +2 | +3 | hsp70B′ mRNA after treatment [2]: only trace amounts
[Cl-].[Cl-].[Zn+2] [ZnCl2] | not affected | induced | +3 | +2 | +1 | +1 | +3 | +2 | +3 | +2 | +3 | +3 | +1 | +3 | –
ECB (VPGGSSCGTQARQGDPSTGPI) | – | – | – | – | – | – | – | – | – | – | – | – | – | – | Relative Titre Index [6]: 1; Relative Titre Index [7]: 1; Relative Titre Index [8]: 1; Relative Titre Index [9]: ≧129; Hsp70B′ Reactivity Rec. protein [10]: 3; Relative Titre Index ([11]; Hsp70B′ Protein, relative to irrelevant antibody, rabbit antibody): ≧41; Preferential reactivity with Hsp70B′ over other HSP70 protein homologs ([11]; based on absolute relative titre index values): 41 fold; Relative Titre Index [12]: 1; Relative Titre Index [13]: 1; Relative Titre Index [14]: *1; Relative Titre Index [15]: ≧86; Relative Titre Index [16]: 1; Reactivity with 68 kDa (Hsp70B′) protein, HeLa HS ([17]; heat stressed HeLa lysate, 10-20 μg): 3; Antisera that specifically detected Hsp70B′ in immunoblots (fraction of rabbits) ([17]; sera from three individual rabbits): ⅓; Reactivity with 68 kDa (Hsp70B′) protein, HeLa ([17]; unstressed HeLa lysate, 10-20 μg): 0; # Animals Responding [18]: 3/3; Antisera Titer (EIA) ([18]; individual animals, reciprocal dilution giving 0.2 absorbance units): >204800
